Experiments:
[1] = target: T1, KRAS G12D (Homo sapiens, UniProt P01116, G12D); experiment: KRAS_G12D cellular pERK HTRF assay; format: cell-based; design: CRL-1997; host or cells: A427 or HPAF-II; settings: KRAS G12D cells (A427, HPAF-II), 2 hours; read-out: G12D_pERK (KRAS_G12D pERK assay IC50)
Method: MIA PaCa-2 (KRAS G12C; ATCC® CRL-1420), A427 (KRAS G12D; ATCC® HTB53), HPAF-II (KRAS G12D; ATCC® CRL-1997) and NCI-H838 (KRAS WT; ATCC® CRL-5844) cells are purchased from ATCC and maintained in RPMI 1640 media supplemented with 10% FBS (Gibco/Life Technologies). The cells are plated at 5000 cells per well (8 uL) into Greiner 384-well low volume, flat-bottom, tissue culture treated white plates and incubated overnight at 37° C., 5% CO2. The next morning, test compound stock solutions are diluted in media at 3x the final concentration, and 4 uL are added to the cells. The plate is mixed by gentle rotation for 30 seconds (250 rpm) at room temperature. The cells are incubated with the KRAS G12C and G12D compounds for 4 hours or 2 hours respectively at 37° C., 5% CO2.
4 uL of 4x lysis buffer with blocking reagent (1:25) (Cisbio) are added to each well and plates are rotated gently (300 rpm) for 30 minutes at room temperature. 4 uL per well of Cisbio anti Phospho-ERK 1/2 d2 is mixed with anti Phospho-ERK 1/2 Cryptate (1:1) are added to each well, mixed by rotation and incubated overnight in the dark at room temperature. Plates are read on the Pherastar plate reader at 665 nm and 620 nm wavelengths. IC50 determination is performed by fitting the curve of inhibitor percent inhibition versus the log of the inhibitor concentration using the GraphPad Prism 7 software.

[2] = target: T1, KRAS G12D; experiment: KRAS_G12D GDP-GTP exchange assay (bodipy-GDP/GppNHp, SOS1); format: biochemical; settings: bodipy-loaded KRAS G12D 2.5 nM, 4 hours pre-incubation, 2 hours exchange; for IC50: read-out: G12D_exchange (KRAS_G12D exchange assay IC50)
Method: (§1) The inhibitor potency of the exemplified compounds was determined in a fluorescence based guanine nucleotide exchange assay, which measures the exchange of bodipy-GDP (fluorescently labeled GDP) for GppNHp (Non-hydrolyzable GTP analog) to generate the active state of KRAS in the presence of SOS1 (guanine nucleotide exchange factor). Inhibitors were serially diluted in DMSO and a volume of 0.1 μL was transferred to the wells of a black low volume 384-well plate. 5 μL/well volume of bodipy-loaded KRAS G12D diluted to 2.5 nM in assay buffer (25 mM Hepes pH 7.5, 50 mM NaCl, 10 mM MgCl2 and 0.01% Brij-35) was added to the plate and pre-incubated with inhibitor for 4 hours at ambient temperature. Appropriate controls (enzyme with no inhibitor or with a G12D inhibitor) were included on the plate. The exchange was initiated by the addition of a 5 μL/well volume containing 1 mM GppNHp and 300 nM SOS1 in assay buffer. The 10 μL/well reaction concentration of the bodipy-loaded KRAS G12D, GppNHp, and SOS1 were 2.5 nM, 500 uM, and 150 nM, respectively. The reaction plates were incubated at ambient temperature for 2 hours, a time estimated for complete GDP-GTP exchange in the absence of inhibitor. For the KRAS G12V mutant, similar guanine nucleotide exchange assays were used with 2.5 nM as final concentration for the bodipy loaded KRAS proteins and 3 hours incubation after adding GppNHp-SOS1 mixture. A cyclic peptide described to selectively bind G12D mutant (Sakamoto et al., BBRC 484.3 (2017), 605-611) or internal compounds with confirmed binding were used as positive controls in the assay plates. Fluorescence intensities were measured on a PheraStar plate reader instrument (BMG Labtech) with excitation at 485 nm and emission at 520 nm.
(§2) Either GraphPad prism or XLfit was used to analyze the data. The IC50 values were derived by fitting the data to a four parameter logistic equation producing a sigmoidal dose-response curve with a variable Hill coefficient. Prism equation: Y=Bottom+(Top−Bottom)/(1+10^((Log IC50−X)*Hill slope)); XLfit equation: Y=(A+((B−A)/(1+((X/C)^D)))) where X is the logarithm of inhibitor concentration and Y is the response.

[3] = target: KRAS G12V (Homo sapiens, UniProt P01116, G12V); experiment: KRAS_G12V GDP-GTP exchange assay (bodipy-GDP/GppNHp, SOS1); format: biochemical; settings: bodipy loaded KRAS G12V 2.5 nM, 3 hours incubation after GppNHp-SOS1; read-out: G12V_exchange (KRAS_G12V exchange assay IC50)
Chain of KRAS G12V (P01116 1-188 isoform P01116-2 G12V): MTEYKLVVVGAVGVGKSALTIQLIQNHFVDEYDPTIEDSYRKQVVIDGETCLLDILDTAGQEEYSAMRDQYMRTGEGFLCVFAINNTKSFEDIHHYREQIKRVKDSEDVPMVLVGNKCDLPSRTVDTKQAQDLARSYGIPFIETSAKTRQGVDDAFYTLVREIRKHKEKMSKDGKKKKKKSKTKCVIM
Method: as §1, §2

T1 sequence (P01116 1-188 isoform P01116-2 G12D): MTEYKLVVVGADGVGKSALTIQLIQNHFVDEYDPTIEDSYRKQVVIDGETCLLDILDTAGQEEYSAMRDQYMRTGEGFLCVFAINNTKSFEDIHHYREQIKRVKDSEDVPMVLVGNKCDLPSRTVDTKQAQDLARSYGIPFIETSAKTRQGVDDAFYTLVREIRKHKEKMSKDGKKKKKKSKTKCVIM

| SMILES | IC50 [1] | G12D_exchange (KRAS_G12D exchange assay IC50) [2] | IC50 [3] | IC50 [2] |
| --- | --- | --- | --- | --- |
| C[C@H](Oc1nc2c(F)c(-c3cc(O)cc4ccccc34)ncc2c2c1nc(CCC(=O)N(C)C)n2C1C2CNC1C2)[C@@H]1CCCN1C (single isomer, unassigned) [Example 9a] | 1000 to 5000 nM | † | ≤ 100 nM | – |
| CC(=O)N1CCC[C@@H]1c1cc2c(O[C@@H](C)[C@@H]3CCCN3C)nc3c(F)c(-c4cccc5scnc45)ncc3c2n1[C@H]1[C@H]2CN[C@@H]1C2 [Example 19, 1-((R)-2-(7-(Benzo[d]thiazol-4-yl)-1-((1R,4R,5S)-2-azabicyclo[2.1.1]hexan-5-yl)-6-fluoro-4-((S)-1-((S)-1-methylpyrrolidin-2-yl)ethoxy)-1H-pyrrolo[3,2-c][1,6]naphthyridin-2-yl)pyrrolidin-1-yl)ethan-1-one] | – | † | ≤ 100 nM | – |
| COC(=O)N1CCC[C@@H]1c1cc2c(N3CC(C)(N(C)C)C3)nc3c(F)c(-c4cccc(Cl)c4Cl)ncc3c2n1[C@H]1[C@H]2CN[C@@H]1C2 [Example 22, Methyl (R)-2-(1-((1R,4R,5S)-2-azabicyclo[2.1.1]hexan-5-yl)-7-(2,3-dichlorophenyl)-4-(3-(dimethylamino)-3-methylazetidin-1-yl)-6-fluoro-1H-pyrrolo[3,2-c][1,6]naphthyridin-2-yl)pyrrolidine-1-carboxylate] | – | † | 100 to 1000 nM | – |
| Cc1cc2c(O[C@@H](C)[C@@H]3CCCN3C)nc3c(F)c(-c4cc(O)cc5ccc(F)cc45)ncc3c2n1[C@H]1[C@H]2CN[C@@H]1C2 [Example 18, 4-(1-((1R,4R,5S)-2-Azabicyclo[2.1.1]hexan-5-yl)-6-fluoro-2-methyl-4-((S)-1-((S)-1-methylpyrrolidin-2-yl)ethoxy)-1H-pyrrolo[3,2-c][1,6]naphthyridin-7-yl)-6-fluoronaphthalen-2-ol] | – | † | ≤ 100 nM | – |
| CN(C)C(=O)CCc1nc2c(N3CC(N(C)C)C3)nc3c(F)c(-c4cccc5c4C(C#N)CC5)ncc3c2n1C1C2CNC1C2 (single isomer, unassigned) [Example 10b, 3-(1-((endo)-2-azabicyclo[2.1.1]hexan-5-yl)-7-(3-cyano-2,3-dihydro-1H-inden-4-yl)-4-(3-(dimethylamino)azetidin-1-yl)-6-fluoro-1H-imidazo[4,5-c][1,6]naphthyridin-2-yl)-N,N-dimethylpropanamide] | – | – | – | 1000 to 5000 nM |
| C[C@H](Oc1nc2c(F)c(-c3cccc4c3OCCC4)ncc2c2c1cc([C@@H](C)n1ccccc1=O)n2[C@H]1[C@H]2CN[C@@H]1C2)[C@@H]1CCCN1C [Example 21, 1-((R)-1-(1-((1R,4R,5S)-2-Azabicyclo[2.1.1]hexan-5-yl)-7-(chroman-8-yl)-6-fluoro-4-((S)-1-((S)-1-methylpyrrolidin-2-yl)ethoxy)-1H-pyrrolo[3,2-c][1,6]naphthyridin-2-yl)ethyl)pyridin-2(1H)-one] | – | † | ≤ 100 nM | – |
| COC(=O)N1CCC[C@@H]1c1cc2c(O[C@@H](C)[C@@H]3CCCN3C)nc3c(F)c(-c4cccc(Cl)c4Cl)ncc3c2n1[C@H]1[C@H]2CN[C@@H]1C2 [Example 23, Methyl (R)-2-(1-((1R,4R,5S)-2-azabicyclo[2.1.1]hexan-5-yl)-7-(2,3-dichlorophenyl)-6-fluoro-4-((S)-1-((S)-1-methylpyrrolidin-2-yl)ethoxy)-1H-pyrrolo[3,2-c][1,6]naphthyridin-2-yl)pyrrolidine-1-carboxylate] | – | † | ≤ 100 nM | – |
| C[C@H](Oc1nc2c(F)c(-c3cccc4c3OCCC4)ncc2c2c1cc(C1CCc3cccc(=O)n31)n2[C@H]1[C@H]2CN[C@@H]1C2)[C@@H]1CCCN1C (single isomer, unassigned) [Example 20a] | – | † | ≤ 100 nM | – |
| CN(C)C(=O)CCc1nc2c(N3CC(N(C)C)C3)nc3cc(-c4cc(O)cc5ccccc45)c(CCC#N)nc3c2n1C1C2CNC1C2 (single isomer, unassigned) [Example 17a, 3-(1-((endo)-2-azabicyclo[2.1.1]hexan-5-yl)-8-(2-cyanoethyl)-4-(3-(dimethylamino)azetidin-1-yl)-7-(3-hydroxynaphthalen-1-yl)-1H-imidazo[4,5-c][1,5]naphthyridin-2-yl)-N,N-dimethylpropanamide] | – | † | 1000 to 5000 nM | – |
| Cc1nc2c(F)c(-c3cc(O)cc4ccccc34)ncc2c2c1cc(CN1CCOC1=O)n2[C@@H]1[C@@H]2CN[C@H]1C2 (relative stereo) [Example 5, 3-((1-((endo)-2-azabicyclo[2.1.1]hexan-5-yl)-6-fluoro-7-(3-hydroxynaphthalen-1-yl)-4-methyl-1H-pyrrolo[3,2-c][1,6]naphthyridin-2-yl)methyl)oxazolidin-2-one] | – | – | 1000 to 5000 nM | 100 to 1000 nM |
| Cc1cc2c(O[C@@H](C)[C@@H]3CCCN3C)nc3c(F)c(N4CCc5ccccc54)ncc3c2n1C1C2CNC1C2 (single isomer, unassigned) [Example 8a] | – | † | 100 to 1000 nM | – |
| C[C@H](Oc1nc2c(F)c(-c3c[nH]c4ccc(F)cc34)ncc2c2c1cc(CN1CCOC1=O)n2C1C2CNC1C2)[C@@H]1CCCN1C (single isomer, unassigned) [Example 6a] | – | – | – | 100 to 1000 nM |
| Cc1nc2c(nc(N3CC(N(C)C)C3)c3nc(CCC(=O)N(C)C)n([C@@H]4[C@@H]5CN[C@H]4C5)c32)c(C)c1-c1cc(O)cc2ccccc12 (relative stereo) [Example 16, 3-(1-((endo)-2-azabicyclo[2.1.1]hexan-5-yl)-4-(3-(dimethylamino)azetidin-1-yl)-7-(3-hydroxynaphthalen-1-yl)-6,8-dimethyl-1H-imidazo[4,5-c][1,5]naphthyridin-2-yl)-N,N-dimethylpropanamide] | – | – | – | 1000 to 5000 nM |
| Cc1cc2c(O[C@@H](C)[C@@H]3CCCN3C)nc3c(F)c(N4CCc5ccccc54)ncc3c2n1C1C2CNC1C2 (single isomer, unassigned) [Example 8b] | – | – | 1000 to 5000 nM | 100 to 1000 nM |
| C[C@H](Oc1nc2c(F)c(-c3cc(O)cc4ccccc34)ncc2c2c1nc(CCC(=O)N(C)C)n2C1C2CNC1C2)[C@@H]1CCCN1C (single isomer, unassigned) [Example 9b] | – | † | ≤ 100 nM | – |
| CNC(=O)c1cccc(-c2nc3c(F)c(-c4cccc(C)c4Cl)ncc3c3c2cc([C@H]2CCCN2C(=O)OC)n3[C@H]2[C@H]3CN[C@@H]2C3)n1 [Example 24, Methyl (R)-2-(1-((1R,4R,5S)-2-azabicyclo[2.1.1]hexan-5-yl)-7-(2-chloro-3-methylphenyl)-6-fluoro-4-(6-(methylcarbamoyl)pyridin-2-yl)-1H-pyrrolo[3,2-c][1,6]naphthyridin-2-yl)pyrrolidine-1-carboxylate] | – | † | 5000 to 10000 nM | – |

From patent US12441742B2, “Naphthyridine compounds as inhibitors of KRAS” (Incyte Corporation, priority 2021, dated 2025)
